“And” between values parts separate entries of the source, which are not always exact repeats. Equal entries are not always repeated.
Tests used:
[1] = biological target: T1, Wild type Arabidopsis AHAS (Arabidopsis thaliana, UniProt P17597); test: AHAS enzyme assay (expression in E. coli MF2000), wild type enzyme; type: biochemical; conditions: wild type (pAC201); Figures 4 and 5
T1 construct: made in house; host or cells: E. coli MF2000 (no endogenous AHAS), vector pKK233-2; ammonium sulfate fraction of the extract
T1 sequence (P17597 56-670): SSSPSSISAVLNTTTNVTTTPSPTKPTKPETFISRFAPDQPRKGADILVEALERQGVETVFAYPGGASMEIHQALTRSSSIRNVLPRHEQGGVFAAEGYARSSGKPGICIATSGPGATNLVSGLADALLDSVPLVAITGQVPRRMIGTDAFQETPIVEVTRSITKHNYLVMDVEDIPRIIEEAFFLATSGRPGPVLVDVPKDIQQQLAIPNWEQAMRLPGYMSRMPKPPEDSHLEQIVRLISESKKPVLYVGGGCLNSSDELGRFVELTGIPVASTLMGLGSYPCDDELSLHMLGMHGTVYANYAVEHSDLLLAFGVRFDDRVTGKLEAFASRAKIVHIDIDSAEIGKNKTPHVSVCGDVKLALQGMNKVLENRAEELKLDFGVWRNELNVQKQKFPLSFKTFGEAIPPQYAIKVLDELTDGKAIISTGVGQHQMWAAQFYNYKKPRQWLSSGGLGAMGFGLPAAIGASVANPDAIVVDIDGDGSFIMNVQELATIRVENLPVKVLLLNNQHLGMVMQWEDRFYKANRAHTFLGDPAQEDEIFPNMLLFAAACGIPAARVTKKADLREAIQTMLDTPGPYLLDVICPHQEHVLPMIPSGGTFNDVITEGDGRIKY
Experimental: AHAS enzyme assay (expression in E. coli) - The site directed mutants, pAC224 and pAC225, are utilized as templates for the generation of an E. coli based expression system. The insensitivity to herbicide is tested when the higher plant gene of interest is expressed in a bacterial strain devoid of any endogenous AHAS activity. To this end, the Nco1/Pst1 fragment of wild type Arabidopsis AHAS (pAC301), the Trp574-Leu substitution (pAC224) and the Trp574 deletion (pAC225) are subcloned into the Nco1/Pst1 site of the E. coli expression vector, pKK233-2 (purchased from Pharmacia). This expression plasmid contains an IPTG inducible promoter as well as a transcription termination sequence. Both regions surround an Nco1, HindIII and Pstl linker sequence that allows proper orientation of the gene of interest in relation to the bacterial promoter. Subcloning and ligation of the respective Ncol/Pstl fragments into Ncol/Pstl digested pKK233-2 DNA (ampicillin resistance) is as previously described. […] This bacterial strain is devoid of endogenous AHAS activity. Therefore, growth on a minimal media lacking isoleucine and valine (the end products of amino acid biosynthetic pathway of which the AHAS enzyme is involved) in an MF2000 strain transformed with either pAC224 (Trp574-Leu) or pAC225 (Trp del) requires the expression and function of the Arabidopsis gene in E. coli. […]

[2] = biological target: T2, Arabidopsis AHAS Trp574 deletion (pAC225) (Arabidopsis thaliana, UniProt P17597, DEL574-574); type: biochemical; conditions: increasing concentrations of herbicide, Figures 4 and 5
T2 construct: made in house; host or cells: E. coli MF2000, vector pKK233-2
Experimental: (§1) AHAS enzyme assay (expression in E. coli) - The site directed mutants, pAC224 and pAC225, are utilized as templates for the generation of an E. coli based expression system. The insensitivity to herbicide is tested when the higher plant gene of interest is expressed in a bacterial strain devoid of any endogenous AHAS activity. To this end, the Nco1/Pst1 fragment of wild type Arabidopsis AHAS (pAC301), the Trp574-Leu substitution (pAC224) and the Trp574 deletion (pAC225) are subcloned into the Nco1/Pst1 site of the E. coli expression vector, pKK233-2 (purchased from Pharmacia). This expression plasmid contains an IPTG inducible promoter as well as a transcription termination sequence. Both regions surround an Nco1, HindIII and Pstl linker sequence that allows proper orientation of the gene of interest in relation to the bacterial promoter. Subcloning and ligation of the respective Ncol/Pstl fragments into Ncol/Pstl digested pKK233-2 DNA (ampicillin resistance) is as previously described. The ligation reaction is transformed into the E. coli strain, MF2000 [ilvB800:mu-1, Bg132, ilvI15, thi-1, argE3, RPSL31, (ara-leu, iIvHI) 863, mtl-1, xyl-5 galK2, lacYI, recAl]. This bacterial strain is devoid of endogenous AHAS activity. […]

[3] = biological target: T3, Arabidopsis AHAS Trp574-Leu substitution (pAC224) (Arabidopsis thaliana, UniProt P17597, W574L); type: biochemical; conditions: increasing concentrations of herbicide, Figures 4 and 5
T3 construct: made in house; host or cells: E. coli MF2000, vector pKK233-2
Experimental: as §1

[4] = biological target: T4, AHAS produced by substitution of asparagine for serine at position 653 (pAC229) (Arabidopsis thaliana, UniProt P17597, S653N); type: biochemical; conditions: Ser653 to asparagine substitution; Figure 6
T4 construct: made in house; host or cells: E. coli MF2000

[5] = biological target: T5, AHAS produced by the Ser653 deletion (pAC230) (Arabidopsis thaliana, UniProt P17597, DEL653-653); type: biochemical; conditions: Figures 6 and 7
T5 construct: made in house; host or cells: E. coli MF2000

[6] = biological target: T6, Trp574-->Leu substitution mutant allele of the Arabidopsis AHAS (Arabidopsis thaliana, UniProt P17597, W574L); test: AHAS enzyme assay (leaf tissue) of tobacco transformants 33-1 and 46-2; type: biochemical; conditions: leaf extracts of kanamycin resistant transformants 33-1 and 46-2
T6 construct: expressed in transfected cells; host or cells: leaf tissue of transgenic tobacco (Wisconsin 38 background), Agrobacterium LBA4404 / pBIN19 with the 5.5 kb XbaI genomic fragment
Experimental: (§2) AHAS enzyme assay (leaf tissue) - Shortly after transfer to the greenhouse, extracts each of the kanamycin resistant transformants are prepared and assayed for insensitivity to the imidazolinone Pursuit® herbicide. Acetohydroxyacid synthase is extracted and assayed as described in the previous section. […] This Trp574 deletion transformant is selfed and backcrossed to Wisconsin 38.
(§3) The extraction and assay for Arabidopsis AHAS in bacterial cells is essentially as described by Singh, et. al. (J. Chromatography 444: 251-261, 1988). The bacterial pellet is powered in liquid nitrogen and homogenized in 100mM potassium phosphate buffer (pH 7.5) containing 10mM pyruvate, 5mM magnesium chloride, 5mM Na₂-EDTA, 100um flavin adenine dinucleotide (FAD), 1mM valine, 1mM leucine, 10%(v/v) glycerol and 10mM cysteine. The homogenate is filtered through a nylon cloth (53uM mesh) and centrifuged at 25,000 x g for 20 minutes. The supernatant fraction is brought to 50% saturation with respect to ammonium sulfate and allowed to stand for 20-30 minutes on ice. […]
(§4) AHAS activity in the presence or absence of herbicide is measured by estimation of the product, acetolactate, after conversion by acid decarboxylation to acetoin. […] The acetoin formed is determined by incubating with creatine (0.17%) and 1-naphthol (1.7%) by the method of Westerfeld (J. Biol. Chem. 161: 495-502, 1945). […]

[7] = biological target: T7, mutant Arabidopsis AHAS allele having the Trp574 deletion (Arabidopsis thaliana, UniProt P17597, DEL574-574); test: AHAS enzyme assay (leaf tissue) of tobacco deletion transformant 10-1; type: biochemical; conditions: leaf extract of kanamycin resistant deletion transformant 10-1
T7 construct: expressed in transfected cells; host or cells: leaf tissue of transgenic tobacco plant 10-1, Agrobacterium LBA4404 / pBIN19 with the 5.5 kb XbaI genomic fragment
Experimental: as §2, §3, §4

[8] = system: Wisconsin 38[W38] wild-type herbicide sensitive tobacco cultivar; test: Postemergence spray of tobacco, susceptible control; type: in vivo; conditions: for plant growth: 25 days after spraying, Figure 2(a); for Tobacco Mean FW: (5 reps each): Control, four and one-half weeks
Source text: (§5) All three photographs were taken 25 days after spraying. In all photographs, control plants (a wild-type herbicide sensitive tobacco cultivar, Wisconsin 38[W38]) are in the front row. • (a) W38 Control and 10-1 Self - W38 represents the control and 10-1 the selfed transgenic tobacco progeny. At 0 g/ha Pursuit®, both the W38 and the 10-1 look similar. […] 0 x 10-1 represents W38 as the maternal parent (0) and 10-1 as the paternal parent. The results are very similar to that seen in the 10-1 selfed photograph. • (c) W38 Control and 10-1 x 0 - W38 as previously described. 10-1 x 0 represents 10-1 as the maternal parent and W38 as the paternal parent (0). The results are very similar to that seen in the 10-1 selfed photograph except that in this photo segregation of the herbicide resistance trait can be seen in the 10-1 progeny.
(§6) In a more quantitative assay, seed of selfed progeny of the transgenic tobacco plant (10-1) containing the Trp574 deletion mutation of Arabidopsis AHAS as well as seeds of the susceptible parental cultivar "Wisconsin 38" are planted in Metro Mix 350™ in 5" Azalea pots. The seedlings are thinned to the single most vigorous seedling after 2 days. Eleven days later, these plants are sprayed postemergence with Pursuit® at 0, 10, 20, 40, 80 and 160 g/ha. Five plants of each tobacco type (transgenic and control) are sprayed per herbicide rate. Tween 20™ is added at 0.25 v/v to the herbicide solutions prior to spraying. The herbicide is applied with a laboratory belt sprayer at a rate of 400 L/ha at a distance 18" above the plants with a belt speed of 8.2 sec/rev and sprayer nozzle #65015E. Plant heights are measured 1, 2, 3, and 4 weeks after treatment, plant fresh weight data is collected at four and one-half weeks.

[9] = system: selfed progeny of the transgenic tobacco plant (10-1) containing the Trp574 deletion mutation of Arabidopsis AHAS; test: Postemergence spray of tobacco, selfed progeny of transgenic plant 10-1; type: in vivo; conditions: for plant growth: 25 days after spraying, Figure 2(a); for Tobacco Mean FW: (5 reps each): Transgenic Progeny, four and one-half weeks
Source text: as §5, §6

W38 (wild-type) = test: Tobacco seed assay on herbicide medium, W38; type: in vivo; conditions: after three weeks
Experimental: (§7) Seeds resulting from transgenic plant 10-1 are also assayed for resistance to the imidazolinone Pursuit®. Seeds are plated onto medium containing Pursuit® at 0, 1.25, 2.5, 3.75, and 5.0 µM. Twenty seeds are plated per petri dish, with two dishes per treatment. Herbicide tolerance of seedlings is evaluated after three weeks. […]

10-1 Selfed = test: Tobacco seed assay on herbicide medium, 10-1 selfed; type: in vivo; conditions: 5 µM in medium; twenty seeds per dish; after three weeks
Experimental: as §7

10-1 x 0 = test: Tobacco seed assay on herbicide medium, 10-1 x 0; type: in vivo; conditions: 5 µM in medium; twenty seeds per dish; after three weeks
Experimental: as §7

0 x 10-1 = test: Tobacco seed assay on herbicide medium, 0 x 10-1; type: in vivo; conditions: 5 µM in medium; twenty seeds per dish; after three weeks
Experimental: as §7

[10] = 5 µM in medium, twenty seeds per dish

T7 sequence (P17597 other isoform, or with tags, fused parts or gaps DEL574-574): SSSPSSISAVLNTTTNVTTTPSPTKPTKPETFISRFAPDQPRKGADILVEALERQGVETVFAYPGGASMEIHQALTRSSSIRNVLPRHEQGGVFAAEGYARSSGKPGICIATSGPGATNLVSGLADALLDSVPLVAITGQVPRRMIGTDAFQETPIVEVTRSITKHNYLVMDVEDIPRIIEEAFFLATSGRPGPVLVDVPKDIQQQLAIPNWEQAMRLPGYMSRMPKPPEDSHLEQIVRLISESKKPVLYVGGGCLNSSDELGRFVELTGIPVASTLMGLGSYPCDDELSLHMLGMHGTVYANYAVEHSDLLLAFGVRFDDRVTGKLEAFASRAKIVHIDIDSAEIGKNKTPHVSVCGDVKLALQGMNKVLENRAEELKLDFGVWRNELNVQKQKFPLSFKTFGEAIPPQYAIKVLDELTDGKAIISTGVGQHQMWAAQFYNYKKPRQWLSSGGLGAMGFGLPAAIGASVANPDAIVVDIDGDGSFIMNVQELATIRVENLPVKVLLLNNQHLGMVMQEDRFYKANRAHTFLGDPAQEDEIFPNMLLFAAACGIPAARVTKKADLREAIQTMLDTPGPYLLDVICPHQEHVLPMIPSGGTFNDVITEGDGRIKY
T2 sequence (P17597 other isoform, or with tags, fused parts or gaps DEL574-574): as above
T3 sequence (P17597 56-670 W574L): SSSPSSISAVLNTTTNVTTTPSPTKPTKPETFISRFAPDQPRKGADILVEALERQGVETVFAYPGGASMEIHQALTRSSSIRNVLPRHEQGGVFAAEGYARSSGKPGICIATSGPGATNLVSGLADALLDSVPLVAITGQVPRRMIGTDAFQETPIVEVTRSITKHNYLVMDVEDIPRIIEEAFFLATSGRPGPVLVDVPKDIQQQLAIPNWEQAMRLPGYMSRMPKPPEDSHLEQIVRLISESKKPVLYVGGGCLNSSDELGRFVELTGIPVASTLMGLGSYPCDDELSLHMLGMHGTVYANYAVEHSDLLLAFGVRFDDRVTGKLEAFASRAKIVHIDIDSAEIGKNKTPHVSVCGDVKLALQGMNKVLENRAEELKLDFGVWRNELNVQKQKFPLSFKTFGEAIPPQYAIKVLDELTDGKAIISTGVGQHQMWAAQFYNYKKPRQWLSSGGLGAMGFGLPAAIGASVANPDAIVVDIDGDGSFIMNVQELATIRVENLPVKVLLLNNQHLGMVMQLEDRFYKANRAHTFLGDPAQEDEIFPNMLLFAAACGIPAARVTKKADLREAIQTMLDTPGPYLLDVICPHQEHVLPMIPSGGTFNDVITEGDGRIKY
T6 sequence (P17597 56-670 W574L): as above
T4 sequence (P17597 56-670 S653N): as the sequence (P17597 56-670 W574L) above, with L519W, S598N counted along it
T5 sequence (P17597 other isoform, or with tags, fused parts or gaps DEL653-653): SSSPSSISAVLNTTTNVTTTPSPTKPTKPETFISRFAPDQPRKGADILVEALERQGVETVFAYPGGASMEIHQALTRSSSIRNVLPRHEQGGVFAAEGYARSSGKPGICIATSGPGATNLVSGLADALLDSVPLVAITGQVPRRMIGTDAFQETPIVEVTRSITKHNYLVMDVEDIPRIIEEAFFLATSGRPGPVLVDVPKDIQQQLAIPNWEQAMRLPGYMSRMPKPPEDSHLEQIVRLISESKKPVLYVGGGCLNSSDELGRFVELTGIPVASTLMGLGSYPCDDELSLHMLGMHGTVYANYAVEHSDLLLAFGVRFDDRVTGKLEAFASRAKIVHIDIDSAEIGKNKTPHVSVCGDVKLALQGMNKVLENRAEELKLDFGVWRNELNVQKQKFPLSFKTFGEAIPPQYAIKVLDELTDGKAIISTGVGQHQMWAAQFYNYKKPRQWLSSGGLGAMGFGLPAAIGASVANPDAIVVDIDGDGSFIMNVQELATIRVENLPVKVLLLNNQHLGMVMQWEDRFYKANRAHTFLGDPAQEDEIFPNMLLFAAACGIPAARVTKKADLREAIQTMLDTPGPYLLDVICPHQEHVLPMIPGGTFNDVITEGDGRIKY

## CCc1cnc(C2=NC(C)(C(C)C)C(=O)N2)c(C(=O)O)c1 (stereo not drawn) [Pursuit®]
[1]
  sensitivity of AHAS enzyme to herbicide: sensitive
[2]
  sensitivity of AHAS enzyme to herbicide: insensitive
[3]
  sensitivity of AHAS enzyme to herbicide: insensitive
[4]
  sensitivity of AHAS enzyme to herbicide: insensitive to inhibition
[5]
  sensitivity of AHAS enzyme to herbicide: highly resistant to inhibition
[6]
  AHAS activity in the presence of herbicide: exhibit AHAS activity
[7]
  AHAS activity on addition of herbicide: exhibits insensitivity
[8]; 10 g/ha post-emergence, compared to 10-1
  plant growth: slightly inhibited
[8]; 10 g/ha postemergence
  Tobacco Mean FW: (5 reps each): 8.1 g
[8]; 20 g/ha postemergence
  Tobacco Mean FW: (5 reps each): 2.0 g
[8]; 40 g/ha postemergence
  Tobacco Mean FW: (5 reps each): 0.8 g
[8]; 80 g/ha postemergence
  Tobacco Mean FW: (5 reps each): 0.6 g
[8]; 160 g/ha postemergence
  Tobacco Mean FW: (5 reps each): 0.2 g
[8]; any of the rates tested (10 to 160 g/ha)
  herbicide tolerance, applied postemergence: does not display herbicide tolerance
[8]; starting at 20 g/ha post-emergence
  plant growth: almost completely inhibited
[9]; 80 g/ha post-emergence
  plant growth: slightly inhibited
[9]; 160 g/ha post-emergence
  plant growth: clearly inhibited
[9]; 10 g/ha postemergence
  Tobacco Mean FW: (5 reps each): 36.4 g
[9]; 20 g/ha postemergence
  Tobacco Mean FW: (5 reps each): 28.8 g
[9]; 40 g/ha postemergence
  Tobacco Mean FW: (5 reps each): 20.9 g
[9]; 80 g/ha postemergence
  Tobacco Mean FW: (5 reps each): 26.5 g
[9]; 160 g/ha postemergence
  Tobacco Mean FW: (5 reps each): 21.4 g
[9]; progeny from 10-1
  tolerance to post-emergence applications, relative to the concentration lethal to control tobacco plants: 4-8 x
[9]; rates 10 to 160 g/ha
  herbicide tolerance, applied postemergence: high degree of tolerance
W38 (wild-type); [10]
  D (Damaged), number of seedlings per dish: 0
  R (Resistant), number of seedlings per dish: 0
  S (Susceptible), number of seedlings per dish: 20
W38 (wild-type); control plants, lowest concentration, 1.25 µM in medium
  herbicide tolerance of seedlings: exhibited herbicide sensitivity
10-1 Selfed
  D (Damaged), number of seedlings per dish: 6 and 11
  R (Resistant), number of seedlings per dish: 6
10-1 x 0
  D (Damaged), number of seedlings per dish: 9
  R (Resistant), number of seedlings per dish: 0
  S (Susceptible), number of seedlings per dish: 11
0 x 10-1
  D (Damaged), number of seedlings per dish: 9 and 8
  R (Resistant), number of seedlings per dish: 0
  S (Susceptible), number of seedlings per dish: 10 and 8
